# According to paper PMC5306062, “Pharmacology and toxicology of the novel investigational agent Cantrixil (TRX-E-002-1)” (Cancer Chemotherapy and Pharmacology, 2016):
# Assays:
# HT-29 = experiment: Cytotoxic activity in human cancer cell lines (72 h growth inhibition); type: cell-based; details: Colorectal, 72 h incubation, mean ± SEM
# Text: (§1) Activity in pancreatic and colorectal cancer cells and glioblastoma cells was more variable (Table 1).
# C4-2B = experiment: as above; type: cell-based; details: Prostate, 72 h incubation, mean ± SEM
# Text: as §1
# A549 = experiment: as above; type: cell-based; details: Lung, 72 h incubation
# Text: as §1
# ASPC1 = experiment: as above; type: cell-based; details: Pancreatic, 72 h incubation, mean ± SEM
# Text: as §1
# PC3 = experiment: as above; type: cell-based; details: PC-3, Prostate, 72 h incubation, mean ± SEM
# Text: as §1
# LOVO = experiment: as above; type: cell-based; details: Colorectal, 72 h incubation, mean ± SEM
# Text: as §1
# JAM = experiment: as above; type: cell-based; details: Ovarian, 72 h incubation, mean ± SEM
# Text: as §1
# DU145 = experiment: as above; type: cell-based; details: DU-145, Prostate, 72 h incubation, mean ± SEM
# Text: as §1
# Panc-1 = experiment: as above; type: cell-based; details: Pancreatic, 72 h incubation, mean ± SEM
# Text: as §1
# A172 = experiment: as above; type: cell-based; details: A 172, Glioblastoma, 72 h incubation, mean ± SEM
# Text: as §1
# OVCAR-3 = experiment: as above; type: cell-based; details: Ovarian, 72 h incubation, mean ± SEM
# Text: as §1
# [1] = system: ovarian, prostate and lung cancer cells; experiment: Broad cytotoxic activity; type: cell-based; details: Homo sapiens, summary over ovarian
# Text: as §1
# hERG current = biological target: T1, hERG current (Homo sapiens, UniProt Q12809); experiment: Patch-clamp electrophysiological assay in hERG-transfected mammalian cells; type: cell-based; details: read-out: IC50 for inhibition of hERG current
# T1 construct: expressed in transfected cells
# [2] = system: hERG single mutant (hERG-SM); experiment: Surface expression of hERG single mutant; type: cell-based, human; details: 0.1-10 μM
# Procedure: However, at concentrations of 0.1-10 μM, the drug increased surface expression of the hERG single mutant (hERG-SM), identifying it as a potential blocker of hERG channel activity. […] Potential cardiovascular responses to intraperitoneal injection of TRX-E-002-1 were investigated in a GLP-compliant telemetry study in beagle dogs. Four male dogs received vehicle (20% SBECD) or TRX-E-002-1 (1, 10 or 30 mg/kg) on four separate occasions in a Latin Square design. Blood pressure, heart rate, ECG parameters and body temperatures were continuously recorded from 30 min before dosing until at least 24 h after each dose.
# [3] = system: chemo-sensitive CD44−/MyD88− ovarian cancer cell lines; experiment: Cell death in chemo-sensitive ovarian cancer cell lines; type: cell-based, human; details: grown separately or in co-cultures
# Text: Tumour recurrence post-chemotherapy is caused by the regrowth of the surviving innately drug-resistant cancer stem cells that remain in tumour niches during and post-chemotherapy. The expansion of this chemo-resistant cancer cell population, coupled with upregulation of pro-survival pathways due to drug pressure, is thought to be responsible for the development of chemo-resistant recurrent disease. Further, the inherent heterogeneity of ovarian tumours consists of epithelial cells with varying potential for stemness, and a population of cancer cells with varying mesenchymal status and invasiveness potential. Therefore, to improve survival, a practical approach is the use of novel therapies that can induce cell death in these various subtypes of ovarian cancer cells. TRX-E-002-1 was assessed against ovarian cancer stem cell line OCSC2, characterised by their expression of stem cell markers including CD44 and […] [22]. A major characteristic of these cells is that they are drug resistant, able to form self-renewing spheroids in non-adherent culture, and recreate disseminated drug-resistant ovarian tumours that have a high degree of heterogeneity similar to the clinical profile observed in patients when inoculated into the peritoneal cavity of an immune-compromised mouse.
# [4] = system: wild-type human ether-à-go-go-related gene (hERG); experiment: hERG trafficking, surface expression of wild-type hERG; type: cell-based
# T1 sequence (Q12809 whole entry): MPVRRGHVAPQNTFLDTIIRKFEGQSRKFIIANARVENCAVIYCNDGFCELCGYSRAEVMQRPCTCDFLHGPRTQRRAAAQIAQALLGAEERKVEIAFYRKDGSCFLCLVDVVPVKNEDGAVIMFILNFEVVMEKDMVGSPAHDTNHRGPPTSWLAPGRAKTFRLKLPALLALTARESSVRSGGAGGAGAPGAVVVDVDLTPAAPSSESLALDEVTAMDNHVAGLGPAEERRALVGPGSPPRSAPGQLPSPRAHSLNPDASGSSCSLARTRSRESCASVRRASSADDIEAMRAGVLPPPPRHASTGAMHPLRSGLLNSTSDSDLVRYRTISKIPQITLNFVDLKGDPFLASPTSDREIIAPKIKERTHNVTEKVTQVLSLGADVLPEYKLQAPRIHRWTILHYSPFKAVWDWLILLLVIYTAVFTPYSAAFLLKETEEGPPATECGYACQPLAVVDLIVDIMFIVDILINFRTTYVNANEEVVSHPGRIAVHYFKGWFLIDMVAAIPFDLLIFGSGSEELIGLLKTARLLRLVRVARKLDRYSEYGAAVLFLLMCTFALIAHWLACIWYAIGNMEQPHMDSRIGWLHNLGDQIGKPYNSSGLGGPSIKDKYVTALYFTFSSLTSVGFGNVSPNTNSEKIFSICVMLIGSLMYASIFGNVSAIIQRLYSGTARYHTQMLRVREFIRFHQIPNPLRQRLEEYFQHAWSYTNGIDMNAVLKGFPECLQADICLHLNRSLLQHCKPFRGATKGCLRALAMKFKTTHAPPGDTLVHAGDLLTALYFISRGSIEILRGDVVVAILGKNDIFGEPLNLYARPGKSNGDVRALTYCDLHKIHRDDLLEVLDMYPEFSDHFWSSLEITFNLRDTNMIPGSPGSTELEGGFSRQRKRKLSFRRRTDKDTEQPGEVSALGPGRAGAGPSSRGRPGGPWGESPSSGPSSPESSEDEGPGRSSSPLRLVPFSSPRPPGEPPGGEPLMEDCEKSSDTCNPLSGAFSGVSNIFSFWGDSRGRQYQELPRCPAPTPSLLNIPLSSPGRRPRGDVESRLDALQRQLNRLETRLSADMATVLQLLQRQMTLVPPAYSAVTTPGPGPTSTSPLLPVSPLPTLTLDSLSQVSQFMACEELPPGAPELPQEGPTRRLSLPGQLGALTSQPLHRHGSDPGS
smiles,measurement,setting,value
"COc1cc([C@@H]2COc3c(ccc(O)c3C)[C@@H]2c2ccc(O)cc2)cc(OC)c1O [TRX-E-002-1, (+) cis-4-(para-hydroxyphenyl)-7,4′-dihydroxy-3′,5′-dimethoxy-8-methylisoflavan]",IC50,HT-29,1760 ± 1380 nM
same,IC50,C4-2B,14 ± 9 nM
same,IC50,A549,58 nM
same,IC50,ASPC1,227 ± 55 nM
same,IC50,PC3,96 ± 77 nM
same,IC50,LOVO,45 ± 5 nM
same,IC50,"LOVO; Homo sapiens, LoVo, 72 h",84 nM
same,IC50,JAM,65 ± 2 nM
same,IC50,DU145,41 ± 14 nM
same,IC50,Panc-1,467 ± 378 nM
same,IC50,A172,51 ± 2 nM
same,IC50,OVCAR-3,23 ± 6 nM
same,IC50,[1],≤ 100 nM
same,IC50,hERG current,17000 nM
same,surface expression of hERG-SM,[2],increased
same,induction of cell death,[3],able to induce cell death
same,surface expression of wild-type hERG,[4],does not affect
